The text below walks through data of patent US11246873B2, “Directed differentiation of oligodendrocyte precursor cells to a myelinating cell fate” (The Scripps Research Institute, priority 2011, dated 2022).

Structures are written as SMILES. Entries after “also recorded” stand apart in the source; their conditions may differ.

In series [1] the test system is OPCs. As to the kind of experiment: Western blot of MBP and MOG in compound treated OPCs. Format: cell-based, rat. Conditions: OPCs treated 6 days. The source says: FIG. 2A-C. Neurotransmitter receptor modulating agents induce the differentiation of OPCs to a myelinating oligodendrocyte cell fate. (A) Western blot analysis of OPCs treated with compounds at EC90 concentrations for 6 days. Total protein was isolated from cell pellets and probed for myelin basic protein (MBP) and myelin oligodendrocyte glycoprotein (MOG) using specific antibodies. (B-C) Quantitative RT-PCR (qRT-PCR) analysis of OPCs treated with compounds at EC90 concentrations for 6 days. Total RNA was isolated from cell pellets and reverse transcribed. MBP and MOG expression was quantified using specific probes and Taqman-based qRT-PCR. Expression was normalized to the internal controls β-actin and GAPDH. Fold change in gene expression over DMSO treated control cells is plotted for MBP (B) and MOG (C).
FIG. 13. […] After 6 days in culture, cells were analyzed for MBP and MOG expression by Western blot.
(In general: In western blotting, separated proteins are transferred to a membrane and probed.)

In series [2] the test system is dopamine D2 and D3 receptor. Format: cell-based, rat. From the text: Error bars indicate standard deviations of 3 replicate measurements.
OPCs express mAChRs, predominantly subtypes M1, M3, and M5 (F. Ragheb et al., J Neurochem, 77, 1396 (2001)). […] Activation of M1 and M3 mAChRs is coupled to downstream signal transduction events through phospholipase C, which results in increased intracellular calcium concentrations (F. Ragheb et al., J Neurochem, 77, 1396 (2001)) (FIG. 23C). M2 and M4 mAChR activation inhibits adenylatecyclase, leading to decreased intracellular cAMP levels (C. C. Felder, FASEB J, 9, 619 (1995); M. Lopez-Ilasaca et al., Science, 275, 394 (1997)). […] Acetylcholine is a known regulator of OPC proliferation and, as such, muscarinic receptor subtypes represent a reasonable class of therapeutic targets for the modulation of OPC proliferation and differentiation (F. De Angelis et al., Dev Neurobiol, (2011)).

The subject of series [3] is OPCs. As to the kind of experiment: Gene expression profile of treated OPCs (Affymetrix rat genome arrays). It counts as cell-based. The following applies: 6 days. Here is the method: FIG. 15. Gene expression profile of OPCs differentiated to oligodendrocytes by benztropine treatment. […] OPCs from the same passage were also pelleted and frozen. Total RNA was isolated from the cells and gene expression analysis was performed using rat genome arrays from Affymetrix. […] Data are represented as fold change over DMSO treated controls.
(A) Increased expression (fold change) of mature oligodendrocyte genes in compound treated cells as compared to DMSO treated cells. (B) Decreased expression (fold change) of OPC genes in compound treated cells as compared to DMSO treated cells.
Benztropine-induced in vitro differentiation of rodent OPCS was confirmed by evaluating the transcription and translation levels of the oligodendrocyte specific markers MBP and myelin oligodendroglial glycoprotein (MOG) by RT-PCR and Western blot analysis, respectively (FIGS. 7B and 13). Additionally, in vitro OPC differentiation activity was assessed by immunofluorescent analysis using multiple markers specifically expressed in mature oligodendrocytes (including MBP, MOG, 2′,3′-cyclic-nucleotide 3′-phosphodiesterase (CNP), […] (GalC), oligodendrocyte marker O1 (O1) and oligodendrocyte marker O4 (O4)) following six days of compound treatment (FIG. 14).

The nature of series [4]: T-cell dependent and independent B-cell responses to TNP-KLH, TNP-LPS, TNP-Ficoll (serum IgG, IgM ELISA). The following applies: 10 mg/kg. Format: in vivo, mouse. Here is the method: Serum was isolated at various time points and IgG and IgM levels were measured by ELISA. […] Error bars represent standard deviations from 3 replicate ELISAs performed on samples from 5 mice in each treatment group.
The primary immunological processes involved in MS and EAE are T-cell mediated and the primary treatment paradigms are based on immunomodulatory drugs (T. Kopadze et al., Arch Neurol, 63, 1572 (2006); J. M. Greer et al., J Immunol, 180, 6402 (2007), M. P. Pender and J. M. Greer, curr Allergy Asthma Rep, 7, 285 (2007)).
For orientation: An ELISA detects its analyte on a solid surface through an enzyme-linked reagent.

Turning to `CN1[C@@H]2CC[C@H]1C[C@@H](OC(c1ccccc1)c1ccccc1)C2` [benztropine], the “MBP and MOG expression (Western blot)” value in series [1] is “positive”. Besides, the “MBP and MOG expression (Western blot)” value in series [1] (listed as Benztropine) is “induces differentiation of OPCs to mature oligodendrocytes”. For the same molecule, in series [2], the “effect of quinpirole or haloperidol on benztropine induced differentiation / dopamine D2 and D3 receptor signaling” value was “neither the dopamine receptor antagonist haloperidol, nor the dopamine receptor agonist quinpirole affected; also recorded: no effect”. Besides, in series [3] (versus DMSO), the “expression of OPC genes and mature oligodendrocyte genes” value is “Downregulation of OPC specific genes required for proliferation; also recorded: downregulation of OPC genes and an upregulation of mature oligodendrocyte genes”. Besides, in series [3] (benztropine 2.3 uM), the “global clustering of gene expression profiles” value is on record as “cluster with those obtained from T3 treated positive control cells; also recorded: clustering of benztropine treated samples with thyroid hormone treated samples”. Also, in series [4], the “TNP-Ficoll induced B-cell responses (serum IgM and IgG)” value is “no effect on IgG and IgM production”; the “TNP-KLH induced B-cell responses (serum IgM and IgG)” value was “no effect on IgG and IgM production”; the “TNP-LPS induced B-cell responses (serum IgM and IgG)” value is “no effect on IgG and IgM production”.
